Assay [1] concerns TGF-β-stimulated SMAD3 phosphorylation in BEAS-2B cells. Description: Cellular ALK5 potency assay, inhibition of TGF-β stimulated pSMAD3 formation in BEAS-2B cells. In kind it is cell-based. The note with it: Homo sapiens, pSMAD3, TGF-β 10 ng/mL, read-out: BEAS2B pIC50 (converted). In outline:
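BEAS-2B cells, HBSS/25 mM HEPES/1% BSA buffer; cpd 1 h, 37 °C; TGF-β 10 ng/mL final, 30 min; lysis, AlphaLISA pSMAD3 read next day. pIC50 vs stimulated no-compound baseline.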

In assay [2] the target is T1, recombinant human ALK5 (TGF-βR1) protein (Homo sapiens, UniProt P36897).
T1 construct: purchased Life Technologies PR9075A
T1 sequence (P36897 34-503): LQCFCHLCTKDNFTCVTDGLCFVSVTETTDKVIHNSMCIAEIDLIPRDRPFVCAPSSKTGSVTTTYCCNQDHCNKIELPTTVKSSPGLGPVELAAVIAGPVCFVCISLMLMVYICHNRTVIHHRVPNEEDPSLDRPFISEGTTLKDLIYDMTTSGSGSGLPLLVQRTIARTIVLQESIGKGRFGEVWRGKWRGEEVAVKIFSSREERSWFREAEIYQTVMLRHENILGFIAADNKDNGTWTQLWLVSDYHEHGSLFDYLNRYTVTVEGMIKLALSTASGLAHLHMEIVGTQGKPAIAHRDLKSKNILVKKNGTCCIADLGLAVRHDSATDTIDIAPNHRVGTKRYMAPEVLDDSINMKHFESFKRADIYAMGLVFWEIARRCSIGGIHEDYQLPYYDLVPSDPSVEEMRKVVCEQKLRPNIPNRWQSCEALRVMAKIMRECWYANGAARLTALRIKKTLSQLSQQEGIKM
Description: Biochemical ALK5 (TGF-βR1) assay to measure pKi (LANCE Ultra ULight kinase assay). The following applies: apparent pKi, converted from pIC50 by Cheng-Prusoff. A digest of the protocol: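 Cmpd + enzyme, 60 min RT; ATP from 125 μM (5×) stock, 60 min 37 °C; stop 12 mM EDTA/Eu anti-pThr1342 Topo2α Ab (pH 7.0 buffer); TR-FRET 665 nm. DMSO = max, SD-208 = min signal. 4-PL pIC50 → pKi (Cheng-Prusoff).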
(In TR-FRET formats the signal depends on donor and acceptor labels being close together.)

In the case of `Cc1cccc(-c2nccc(Nc3ccnc(Nc4ncc(C(=O)OCC5CNC5)s4)n3)n2)n1` [Compound 338, azetidin-3-ylmethyl 2-((4-((2-(6-methylpyridin-2-yl)pyrimidin-4-yl)amino)pyrimidin-2-yl)amino)thiazole-5-carboxylate], in assay [1], the IC50 is 200 to 1260 nM. In addition, in assay [2], the Ki was 3.98 to 31.6 nM.
On the same counts, the results for `Cc1cccc(-c2nccc(Nc3ccnc(Nc4nc(CN5CCC[C@@H](C(=O)O)C5)cs4)n3)n2)n1` [Compound 339, (3R)-1-[[2-[[4-[[2-(6-methyl-2-pyridyl)pyrimidin-4-yl]amino]pyrimidin-2-yl]amino]thiazol-4-yl]methyl]piperidine-3-carboxylic acid] are 200 to 1260 nM and 0.398 to 3.16 nM.
For the compound `Cc1cccc(-c2nc(Nc3ccnc(Nc4ccc(N5CCOCC5)cc4)n3)c3nn[nH]c3n2)n1` [Compound 340, N4-[5-(6-methyl-2-pyridyl)-3H-triazolo[4,5-d]pyrimidin-7-yl]-N2-(4-morpholinophenyl)pyrimidine-2,4-diamine], the IC50 in assay [1] is 200 to 1260 nM. In assay [2], the Ki is 0.0398 to 0.316 nM.
On to `Cc1cccc(-c2nccc(Nc3ccnc(Nc4ccc(CN5CCC[C@@H](C(=O)O[C@@H]6CCN(C)C6)C5)cc4)n3)n2)n1` [Compound 341, [(3R)-1-methylpyrrolidin-3-yl] (3R)-1-[[4-[[4-[[2-(6-methyl-2-pyridyl)pyrimidin-4-yl]amino]pyrimidin-2-yl]amino]phenyl]methyl] piperidine-3-carboxylate], for which the IC50 in assay [1] is 25.1 to 158 nM. The Ki in assay [2] was 0.0398 to 0.316 nM.
Regarding `Cc1cccc(-c2nccc(Nc3ccnc(Nc4ccc(NC[C@@H]5CCCN5)cc4)n3)n2)n1` [Compound 342, N4-[2-(6-methyl-2-pyridyl)pyrimidin-4-yl]-N2-[4-[[(2S)-pyrrolidin-2-yl]methylamino]phenyl] pyrimidine-2,4-diamine], the IC50 in assay [1] is 25.1 to 158 nM. For the same compound, in assay [2], the Ki is 0.0398 to 0.316 nM.
With `Cc1cccc(-c2nccc(Nc3ccnc(Nc4ccc(N5CCC(N)CC5)c(F)c4)n3)n2)n1` [Compound 343, N2-[4-(4-amino-1-piperidyl)-3-fluoro-phenyl]-N4-[2-(6-methyl-2-pyridyl)pyrimidin-4-yl]pyrimidine-2,4-diamine], in assay [1], the IC50 is 25.1 to 158 nM. Also, the Ki in assay [2] is at most 0.0316 nM.
Consider `Cc1cccc(-c2nccc(Nc3ccnc(Nc4ccc(CN5C[C@@H](C)NC[C@@H]5C)cc4)n3)n2)n1` [Compound 344, N2-[4-[[(2S,5R)-2,5-dimethylpiperazin-1-yl]methyl]phenyl]-N4-[2-(6-methyl-2-pyridyl)pyrimidin-4-yl]pyrimidine-2,4-diamine], for which the IC50 in assay [1] was 25.1 to 158 nM. Moreover, in assay [2], the Ki was 0.0398 to 0.316 nM.
Regarding `Cc1cccc(-c2nccc(Nc3ccnc(Nc4cc(C(=O)O[C@H]5CCN(C)C5)cs4)n3)n2)n1` [Compound 345, [(3S)-1-methylpyrrolidin-3-yl] 5-[[4-[[2-(6-methyl-2-pyridyl)pyrimidin-4-yl]amino]pyrimidin-2-yl]amino]thiophene-3-carboxylate], in assay [1], the IC50 is 25.1 to 158 nM. Also, in assay [2], the Ki is 0.0398 to 0.316 nM.
On to `Cc1cccc(-c2nccc(Nc3ccnc(Nc4ccc(NCCN5CCN(C(C)C)CC5)cc4)n3)n2)n1` [Compound 346, N2-[4-[2-(4-isopropylpiperazin-1-yl)ethylamino]phenyl]-N4-[2-(6-methyl-2-pyridyl)pyrimidin-4-yl]pyrimidine-2,4-diamine], for which the IC50 in assay [1] was 25.1 to 158 nM. In assay [2], the Ki is 0.0398 to 0.316 nM.
For `CNCCn1cc(-c2ccc(Nc3nccc(Nc4ccnc(-c5cccc(C)n5)n4)n3)cc2)cn1` [Compound 347, N2-(4-(1-(2-(methylamino)ethyl)-1H-pyrazol-4-yl)phenyl)-N4-(2-(6-methylpyridin-2-yl)pyrimidin-4-yl)pyrimidine-2,4-diamine], in that order: 25.1 to 158 nM and 0.0398 to 0.316 nM.
On the same counts, the results for `COc1cc(N2CCOCC2)ccc1Nc1nccc(Nc2ccnc(-c3cccc(C)n3)n2)n1` [Compound 348, N2-(2-methoxy-4-morpholino-phenyl)-N4-[2-(6-methyl-2-pyridyl)pyrimidin-4-yl]pyrimidine-2,4-diamine] are 200 to 1260 nM and 3.98 to 31.6 nM.
In the case of `Cc1cccc(-c2nccc(Nc3ccnc(Nc4nc(C(=O)N5CCN[C@@H](CO)C5)cs4)n3)n2)n1` [Compound 349, [(3R)-3-(hydroxymethyl)piperazin-1-yl]-[2-[[4-[[2-(6-methyl-2-pyridyl)pyrimidin-4-yl]amino]pyrimidin-2-yl]amino]thiazol-4-yl]methanone], the IC50 in assay [1] is 200 to 1260 nM. Also, the Ki in assay [2] is 0.398 to 3.16 nM.
As to `Cc1cccc(-c2nccc(Nc3ccnc(Nc4ccc(Cl)c(CN5CCSCC5)c4)n3)n2)n1` [Compound 350, N2-[4-chloro-3-(thiomorpholinomethyl)phenyl]-N4-[2-(6-methyl-2-pyridyl)pyrimidin-4-yl]pyrimidine-2,4-diamine], the IC50 in assay [1] was 25.1 to 158 nM. Also, the Ki in assay [2] is 0.398 to 3.16 nM.
Consider `Cc1cccc(-c2nccc(Nc3ccnc(Nc4ccc(C5COCCN5)cc4)n3)n2)n1` (stereo not drawn) [Compound 351, N4-[2-(6-methyl-2-pyridyl)pyrimidin-4-yl]-N2-(4-morpholin-3-ylphenyl)pyrimidine-2,4-diamine], for which, in assay [1], the IC50 was at most 20 nM. For the same compound, the Ki in assay [2] was 0.0398 to 0.316 nM.
Take `CNC1CCN(S(=O)(=O)c2ccc(Nc3nccc(Nc4ccnc(-c5cccc(C)n5)n4)n3)cc2)CC1` [Compound 352, N2-[4-[[4-(methylamino)-1-piperidyl]sulfonyl]phenyl]-N4-[2-(6-methyl-2-pyridyl)pyrimidin-4-yl]pyrimidine-2,4-diamine]: the IC50 in assay [1] was 25.1 to 158 nM. Moreover, the Ki in assay [2] was 0.0398 to 0.316 nM.
For `CC(=O)N(CC1CNC1)c1ccc(Nc2nccc(Nc3ccnc(-c4cccc(C)n4)n3)n2)cc1` [Compound 353, N-(azetidin-3-ylmethyl)-N-[4-[[4-[[2-(6-methyl-2-pyridyl)pyrimidin-4-yl]amino]pyrimidin-2-yl]amino]phenyl]acetamide], in that order: 25.1 to 158 nM and 0.0398 to 0.316 nM.
For the compound `Cc1nc(-c2nccc(Nc3ccnc(Nc4ccc(N5CCOCC5)cc4)n3)n2)ccc1F` [Compound 354, N4-[2-(5-fluoro-6-methyl-2-pyridyl)pyrimidin-4-yl]-N2-(4-morpholinophenyl)pyrimidine-2,4-diamine], in assay [1], the IC50 was 25.1 to 158 nM. Besides, the Ki in assay [2] was 0.398 to 3.16 nM.
On the same counts, the results for `Cc1cccc(-c2nccc(Nc3ccnc(Nc4ccc(NCCN5CCOCC5)cc4)n3)n2)n1` [Compound 355, N4-[2-(6-methyl-2-pyridyl)pyrimidin-4-yl]-N2-[4-(2-morpholinoethylamino)phenyl] pyrimidine-2,4-diamine] are 25.1 to 158 nM and 0.398 to 3.16 nM.
`Cc1cccc(-c2nccc(Nc3ccnc(Nc4ccc(-c5cnn(CCN(C)C)c5)cc4)n3)n2)n1` [Compound 356, N2-[4-[1-[2-(dimethylamino)ethyl]pyrazol-4-yl]phenyl]-N4-[2-(6-methyl-2-pyridyl)pyrimidin-4-yl]pyrimidine-2,4-diamine]: in assay [1], the IC50 is 25.1 to 158 nM. In assay [2], the Ki is 0.0398 to 0.316 nM.
Take `Cc1cccc(-c2nccc(Nc3ccnc(Nc4cccc(NC(=O)C5CCN(C6CCOCC6)CC5)c4)n3)n2)n1` [Compound 357, N-[3-[[4-[[2-(6-methyl-2-pyridyl)pyrimidin-4-yl]amino]pyrimidin-2-yl]amino]phenyl]-1-tetrahydropyran-4-yl-piperidine-4-carboxamide]: the IC50 in assay [1] was 25.1 to 158 nM. In assay [2], the Ki is 0.0398 to 0.316 nM.
For the compound `Cc1cccc(-c2nccc(Nc3ccnc(Nc4ccc(C5=CCC(NC(C)C)CC5)cc4)n3)n2)n1` (stereo not drawn) [Compound 358, N2-[4-[4-(isopropylamino)cyclohexen-1-yl]phenyl]-N4-[2-(6-methyl-2-pyridyl)pyrimidin-4-yl]pyrimidine-2,4-diamine], the IC50 in assay [1] is 200 to 1260 nM. The Ki in assay [2] was 0.0398 to 0.316 nM.
For the compound `Cc1cccc(-c2nccc(Nc3ccnc(Nc4ccc(CN5CCNCC5)cc4)n3)n2)n1` [Compound 359, N4-[2-(6-methyl-2-pyridyl)pyrimidin-4-yl]-N2-[4-(piperazin-1-ylmethyl)phenyl]pyrimidine-2,4-diamine], the IC50 in assay [1] is 25.1 to 158 nM. Further, the Ki in assay [2] was 0.0398 to 0.316 nM.
With `Cc1cccc(-c2nccc(Nc3ccnc(Nc4ccc(C)c(CN5CCSCC5)c4)n3)n2)n1` [Compound 361, N4-[2-(6-methyl-2-pyridyl)pyrimidin-4-yl]-N2-[4-methyl-3-(thiomorpholinomethyl)phenyl] pyrimidine-2,4-diamine], the IC50 in assay [1] was 25.1 to 158 nM. The Ki in assay [2] is 0.0398 to 0.316 nM.
On to `Cc1cccc(-c2nccc(Nc3ccnc(Nc4cccc(CN5CCNCC5)c4)n3)n2)n1` [Compound 362, N4-[2-(6-methyl-2-pyridyl)pyrimidin-4-yl]-N2-[3-(piperazin-1-ylmethyl)phenyl]pyrimidine-2,4-diamine], for which, in assay [1], the IC50 is 25.1 to 158 nM. Moreover, the Ki in assay [2] was 0.0398 to 0.316 nM.
